The conditions of the data set: plant derived raw materials.

From US11419909B2, “Compositions and methods for maintaining or enhancing homeostasis or function of female lower reproductive tract” (FAIRHAVEN HEALTH, LLC, priority 2016, dated 2022) come the findings set out here.

Take `O=C[C@H](O)[C@@H](O)[C@H](O)CO` [D-Xylose source 1, D-Xylose]: the “Endotoxin Level” value is less than 0.07 EU/mg.
